From US8524744B2, “Arylamine ketones, their preparation methods, the pharmaceutical composition containing them and their use” (Institute of Mataria Medica, Chinese Academy of Medical …, priority 2004, dated 2013)
Counter-ions that a name gives are not always drawn.

How the values were obtained:
[1] = tested on: rat neutrophils; assay: chemotaxis of rat neutrophils in vitro; format: cell-based; conditions: Neutrophil, 4 hr, read-out: IC50, inhibition of chemotaxis
Description: The blood was collected from rat common carotid artery and anticoagulated. The neutrophils was isolated by 5% glucose solution and lymphocyte separating medium. 27 μl of irritant was added into the well at low part of the chemotaxis plate. The filter membrane was covered on the wells and the top part of the plate was assembled on the filter. 50 μl of cells suspension with various concentrations of compound or solvent was added into the well at top part of the plate. The plate was incubated at 37° C. for 4 hr. The filter was taken out, stained by hematoxylin and dehydrated. The cells migrated into the other side of the filter was counted by microscope.

[2] = tested on: polymorphonuclear leucocytes from rat pleural cavity; assay: release of β-glucuronidase by polymorphonuclear leucocytes from rat pleural cavity in vitro (PAF as irritant); format: cell-based
Method in brief: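 Carrageenan-elicited pleural PMNs from Wistar rats (2.5×10^6 cells/ml, Dulbecco's buffer) were incubated with compound 15 min at 37° C, then cytochalasin B 5 min, then PAF 5 min. β-Glucuronidase in supernatant was assayed with phenolphthalein-glucuronic acid, 18 h at 37° C, OD 550 nm after NaOH.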

[3] = tested on: intracellular calcium level of rat polymorphonuclear leucocytes; assay: increase of intracellular calcium level of rat polymorphonuclear leucocytes (Fura-2/AM, PAF); format: cell-based; conditions: Leucocyte, read-out: IC50, inhibition of the increase of intracellular calcium level
Description: 1% carrageenan was used to induce polymorphonuclear leucocytes from rat peritoneal cavity. The Fura-2/AM (final concentration: 3×10^−6 mol·L^−1) was added into cells suspension. 1 ml of cells suspension was added into the test tube with compound or solvent. The test tubes were placed in a shaking waterbath at 37° C. for 45 min. Then the test tubes were cooled at room temperature for 15 min. The cells were rinsed twice using HBSS to discarded Fura-2/AM remained in outside of the cells. The suspension of cells loaded with Fura-2/AM was added into the absorbent chamber of fluorospectrometer. The cells were kept to suspend at 37° C. and the fluorescence strength was measured at resting condition or after 20μl of PAF (1×10^−4 mol·L^−1), 20 μl of 10% Triton X-100 and 100 μl EGTA (500 mmol·L−1) was added, respectively. The changes of the intracellular level of calcium at the resting condition or after irritants were added was calculated by program for Ca^2+ measurement.

[4] = tested on: mouse paw swelling induced by carrageenan; assay: mouse paw swelling induced by carrageenan; format: in vivo; conditions: orally, 50 mg·kg^−1, Kunming mice
Description: Kunming mice (male, 18-22 g) were randomly divided into two groups (treatment and control) with 10 animals for each group. The animals were orally administrated with compounds or solvent, respectively. 1 hr later, 50 μl of 1% carrageenan was intracutaneously injected into the sole of right posterior foot. After 4 hr the animals were sacrificed by displacing cervical vertebra. The two paws were cut off at ankle joint and weighed. The swelling was evaluated by the difference of the weights of two paws.

[5] = target: T1, PAF receptors of rat polymorphonuclear leucocytes (Rattus norvegicus, UniProt P46002); assay: competitive binding of [3H]-PAF to its receptors of rat polymorphonuclear leucocytes; conditions: 37° C., 30 min, read-out: IC50, competition with [3H]-PAF binding
T1 construct: The suspension of rat polymorphonuclear leucocytes was prepared; endogenous in cells; host or cells: rat polymorphonuclear leucocytes (primary, whole-cell suspension)
T1 sequence (P46002 whole entry): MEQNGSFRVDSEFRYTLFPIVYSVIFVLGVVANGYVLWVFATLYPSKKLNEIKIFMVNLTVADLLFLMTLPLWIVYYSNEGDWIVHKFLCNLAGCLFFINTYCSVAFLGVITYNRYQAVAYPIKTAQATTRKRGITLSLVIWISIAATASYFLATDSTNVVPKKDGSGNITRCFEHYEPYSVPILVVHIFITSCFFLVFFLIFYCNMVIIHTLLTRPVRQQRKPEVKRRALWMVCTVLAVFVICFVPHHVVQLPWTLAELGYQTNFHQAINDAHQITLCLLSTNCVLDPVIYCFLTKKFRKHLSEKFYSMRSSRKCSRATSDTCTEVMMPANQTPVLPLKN
Description: The suspension of rat polymorphonuclear leucocytes was prepared. 240 μl of cells suspension (2×10^6cells·ml^−1), 5 μl of [^3H](5 μmol·L^1) were added into each well. 5 μl of unlabeled PAF (5 μl mol·L^−1)was added into the well for the nonspecific binding. The series concentrations of compound were added into the well for the competitive binding and the corresponding volume of solvent was added into the wells for the total binding or the nonspecific binding. The reaction was kept in water bath at 37° C. for 30 min and stopped by ice bath. Reaction fluid was filtrated using the filter membrane which was rinsed by cold buffer to separate the free labeled ligand. The filter membrane was dried at 80° C. and placed into a vial for scintillation in which 5 ml of scintillation agent was poured. The radioactivity strength was measured by scintillation counter.

[6] = tested on: mouse ear edema induced by croton oil; assay: mouse ear edema induced by croton oil; format: in vivo; conditions: orally, 50 mg·kg^−1, Kunming mice
Description: Kuming mice (male, 18-22 g) were randomly divided into two groups (treatment and control) with 10 animals for each group. The animals were orally administrated with compounds or solvent, respectively. 1 hr later, 50 μl of 2% croton oil was smeared on the two sides of mouse left ear. After 4 hr the mice were sacrificed by cervical vertebra displacement. The two ears were cut off and the central sections were excised using a punch with a diameter of 8 mm and weighed. Edema was quantified as the weight difference between the two sections.

[7] = tested on: cutaneous vascular permeability in mice induced by PAF; assay: increase of cutaneous vascular permeability in mice induced by PAF; format: in vivo, mouse; conditions: orally, 50 mg·kg^−1, Kunming mice
Description: Kunming mice (male, 18-22 g) were randomly divided into two groups (treatment and control) with 10 animals for each group. The animals were orally administrated with the compounds or solvent, respectively. 1 hr later, 0.25 ml of 1% evans blue dye was injected into the tail vein. After 10 min, 0.1 ml of PAF (1×10^−8 mol·L^−1) was intracutaneously injected into the dorsal skin shaved. 1 hr later, the animals were sacrificed by cervical vertebra displacement. The skin with blue spot was cut off. The evans blue dye was extracted by 0.8 ml of mixed solution of acetone and normal saline (7:3). The supernatant was transferred into the 96-well plate. The optical density was measured at 620 nm.

IC50 [1]: 335 nM
IC50 [3]: 5160 nM
IC50 [5]: 55000 nM
Compound: O=C(C=Cc1ccc(C(F)(F)F)cc1)CCN1CCC(Cc2ccccc2)CC1 [Compound 20, 5-[(4-Benzyl)piperidyl]-1-(4-trifluoromethylphenyl)-1-penten-3-one hydrochloride]
Inhibition (%) of β-glucuronidase release ([2]; Dose 1 × 10^−5 mol · L^−1, Irritant 1 × 10^−6 mol · L^−1): 104.03%
IC50 ([2]; Leucocyte, rat polymorphonuclear leucocytes): 308 nM
Inhibition (%) of mouse paw swelling [4]: 21.46%
Inhibition (%) of mouse ear edema [6]: 27.66%
Inhibition (%) of increase of cutaneous vascular permeability [7]: 55.78%
